Data published in article PMC9181902 (Journal of the American Chemical Society, 2022).
“Also recorded” adds a separate entry of the source.

Tests used:
hOAT [1] = target: T1, hOAT (Homo sapiens, UniProt P04181); details: cited from earlier work
T1 sequence (P04181 26-439): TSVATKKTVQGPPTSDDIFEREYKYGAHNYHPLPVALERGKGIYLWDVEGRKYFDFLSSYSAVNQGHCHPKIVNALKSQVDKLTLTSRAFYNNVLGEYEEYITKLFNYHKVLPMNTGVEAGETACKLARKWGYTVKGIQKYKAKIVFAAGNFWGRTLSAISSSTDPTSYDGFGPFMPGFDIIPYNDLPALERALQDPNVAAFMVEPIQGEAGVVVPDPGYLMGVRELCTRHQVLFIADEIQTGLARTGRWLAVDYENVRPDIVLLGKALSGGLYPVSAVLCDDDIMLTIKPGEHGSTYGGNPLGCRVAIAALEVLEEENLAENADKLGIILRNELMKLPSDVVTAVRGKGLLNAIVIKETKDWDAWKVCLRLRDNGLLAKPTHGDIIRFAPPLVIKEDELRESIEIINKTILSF

[2] = cited from earlier work
Ala-AT = assay: Inhibition of Ala-AT; type: biochemical, human; details: even at high concentrations
GABA-AT [3] = assay: Inhibition of GABA-AT; type: biochemical, human; details: even at high concentrations
Asp-AT = assay: Inhibition of Asp-AT; type: biochemical, human; details: even at high concentrations
hOAT [4] = target: T1, hOAT; assay: Stopped-flow transient state measurements of hOAT; type: biochemical
hOAT [5] = target: T1, hOAT; assay: Partition ratio; type: biochemical
hOAT [6] = target: T1, hOAT; assay: Dialysis of inactivated hOAT, return of enzyme activity; type: biochemical
GABA-AT [7] = details: cited from earlier work

## N[C@H]1C[C@@H](C(=O)O)CC1=C(C(F)(F)F)C(F)(F)F [6c, (1S,3S)-3-amino-4-(hexafluoropropan-2-ylidenyl)cyclopentane-1-carboxylic Acid]
hOAT [1]
  Ki: 65 ± 10 µM
[2]
  in vivo antitumor efficacy: potent in vivo antitumor efficacy

## N[C@H]1C=C(C(=O)O)C[C@H]1C(F)F [10b, (3S,4R)-3-Amino-4-(difluoromethyl)cyclopent-1-ene-1-carboxylic Acid]
Ala-AT
  inhibitory activity against Ala-AT: weak reversible inhibitory activity
GABA-AT [3]
  inhibitory activity against GABA-AT: weak reversible inhibitor; also recorded: weak reversible inhibitory activity
Asp-AT
  inhibitory activity against Asp-AT: weak reversible inhibitory activity
hOAT [4]; 500 μM of 10b
  first successive rate constant from fit of CCD data sets (k2’): 0.22 s⁻¹
  second successive rate constant from fit of CCD data sets (k3’): 0.21 s⁻¹
  third successive rate constant from fit of CCD data sets (k4): 0.03 s⁻¹
hOAT [4]; 410 nm, second phase, average
  rate constant for formation of P1 from M2 (k4): ~ 0.02 s^−1
hOAT [5]
  fraction undergoing ketimine hydrolysis to product 37 and PMP: ~ 70%
hOAT [5]; according to the partition ratio (1/3.38)
  fraction of the reaction forming tight-binding adduct 34: ~ 30%
hOAT [6]; 91 h of dialysis, varying equivalents
  enzyme activity recovered after dialysis: no enzyme activity was recovered

## N[C@H]1C[C@@H](C(=O)O)CC1=C(F)F [compound 1, (1S,3S)-3-amino-4-(difluoromethylene)cyclopentane-1-carboxylic acid]
hOAT [6]; 48 h of dialysis
  enzyme activity recovered after dialysis: no enzyme activity was recovered

## N[C@H]1C=C(C(=O)O)CC1=C(F)F [compound 7, (S)-3-amino-4-(difluoromethylenyl)cyclopent-1-ene-1-carboxylic acid]
GABA-AT [7]
  type of inhibition of GABA-AT: partially irreversible inhibitors
hOAT [6]; 48 h of dialysis
  enzyme activity recovered after dialysis: no enzyme activity was recovered
